Assay [1] in a line: Inhibition of cyclin dependent kinase.
Assay [2] in a line: Inhibition of beta-arylsulfotransferase 4.
Assay [3] can be described thus: Inhibition of inositol 1,4,5-triphosphate 3-kinase.
For assay [4], the target named is Cyclin-dependent kinase 1/cyclin B1 (Homo sapiens, UniProt P06493). Kind of assay: Inhibition of Cdk1/cyclin B.
Assay [5] addresses Cyclin-dependent kinase 2 (Homo sapiens, UniProt P24941). Kind of assay: Inhibition of Cdk2/cyclin A.

pIC50, pKi: −log10 of the molar value.

Chain of Cyclin-dependent kinase 1/cyclin B1 (P06493 whole entry): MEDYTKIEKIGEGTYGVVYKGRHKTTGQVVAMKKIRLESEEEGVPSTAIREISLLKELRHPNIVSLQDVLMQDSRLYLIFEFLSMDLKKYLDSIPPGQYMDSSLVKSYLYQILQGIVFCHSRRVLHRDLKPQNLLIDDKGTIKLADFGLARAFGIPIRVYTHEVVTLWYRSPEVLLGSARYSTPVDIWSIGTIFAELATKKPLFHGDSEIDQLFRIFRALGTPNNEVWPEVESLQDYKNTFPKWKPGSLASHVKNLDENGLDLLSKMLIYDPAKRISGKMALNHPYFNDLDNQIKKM
Chain of Cyclin-dependent kinase 1/cyclin B1 (P14635 whole entry, further chain): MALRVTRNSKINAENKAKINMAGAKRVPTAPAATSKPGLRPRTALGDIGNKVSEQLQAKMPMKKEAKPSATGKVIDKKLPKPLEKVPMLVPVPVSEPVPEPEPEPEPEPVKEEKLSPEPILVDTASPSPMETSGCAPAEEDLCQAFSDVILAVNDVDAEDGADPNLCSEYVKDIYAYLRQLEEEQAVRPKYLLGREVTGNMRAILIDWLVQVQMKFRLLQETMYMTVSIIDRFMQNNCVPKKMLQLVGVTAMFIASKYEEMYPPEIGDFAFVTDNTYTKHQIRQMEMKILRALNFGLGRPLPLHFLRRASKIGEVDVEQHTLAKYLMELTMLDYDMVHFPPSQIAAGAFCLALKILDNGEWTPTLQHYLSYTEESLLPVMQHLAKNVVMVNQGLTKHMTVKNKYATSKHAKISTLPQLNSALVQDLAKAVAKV

As to `CC[C@H](CO)Nc1nc(Nc2cc(Cl)cc(C(=O)O)c2)c2ncn(C(C)C)c2n1`, in assay [1], the negative-log IC50 (pIC50) is 8.40.

On to `CC[C@H](CO)Nc1nc(Nc2cccc(Cl)c2)c2ncn(C(C)C)c2n1`, for which the pIC50 in assay [1] is 8.40.

`Cn1cnc2c(NCc3ccccc3)nc(NCCO)nc21` [OLOMOUCINE] showed a pIC50 in assay [1] of 3.00.

On to `CC[C@H](CO)Nc1nc(NCc2ccccc2)c2ncn(C(C)C)c2n1` [SELICICLIB], for which the pIC50 in assay [1] was 6.35.

For `Clc1nc(NCc2cccc3ccccc23)c2nc[nH]c2n1`, the negative-log Ki (pKi) in assay [2] was 7.02.

For the compound `O=[N+]([O-])c1ccc(CNc2nc(NCc3cccc(C(F)(F)F)c3)nc3[nH]cnc23)cc1`, the figures for the negative logarithm of the IC50 (pIC50) in assay [3] and in assay [4] were 4.99 and under 4.00, respectively.

Regarding `OCCn1cnc2c(NCc3ccccc3)nc(NCc3ccc(Br)cc3)nc21`, the pIC50 in assay [5] is 4.70.
